The target of the assay is CYP3A4 (Homo sapiens, UniProt P08684). The assay can be described thus: Determination of CYP3A4 inhibitory activity (human liver microsome, Luciferin-IPA). The note with it: CYP3A4 IC50 (nM), 37° C. 11 minutes. The protocol: The standard final Compound concentrations were 37, 111, 333, 1000, and 3000 nM. 12.5 μL of the Compound dilutions were transferred to a white 96-well plate. […] 25 μL of the buffer was added to each well. The plates were incubated at 37° C. for 11 minutes. 50 μL of luciferin detection reagent (Promega V9002) was added and the plates were incubated at room temperature for 5 minutes. The plate was read with a luminometer.
The dose-response curve and IC50 were obtained by fitting data to nonlinear regression model using GraphPad Prism software (v6.0).
On the technique in general: Liver microsomes are vesicles of endoplasmic reticulum, rich in cytochrome P450 enzymes.

Results on 50 compounds are retold here after patent publication US20220106301A1, “ACETAMIDO-PHENYLBENZAMIDE DERIVATIVES AND METHODS OF USING THE SAME” (Athenex, Inc., priority 2020, published 2022).

The structures appear in SMILES notation.

CYP3A4, sequence (P08684 whole entry): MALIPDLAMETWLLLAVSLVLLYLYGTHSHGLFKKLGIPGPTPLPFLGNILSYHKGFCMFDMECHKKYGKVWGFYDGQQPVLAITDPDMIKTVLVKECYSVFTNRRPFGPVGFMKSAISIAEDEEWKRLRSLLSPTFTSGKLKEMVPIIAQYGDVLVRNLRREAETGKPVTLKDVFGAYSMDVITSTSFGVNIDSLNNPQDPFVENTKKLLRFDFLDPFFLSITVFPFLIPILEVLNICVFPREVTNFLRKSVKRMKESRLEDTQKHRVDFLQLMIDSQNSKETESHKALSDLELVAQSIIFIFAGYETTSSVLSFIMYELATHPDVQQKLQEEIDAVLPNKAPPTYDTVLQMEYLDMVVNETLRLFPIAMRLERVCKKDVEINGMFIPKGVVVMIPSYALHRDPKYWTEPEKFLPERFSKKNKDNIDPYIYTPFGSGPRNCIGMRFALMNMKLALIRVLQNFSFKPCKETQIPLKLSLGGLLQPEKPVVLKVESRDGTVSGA

What is called IC50 is the point on the concentration scale where inhibition reaches its midpoint. A low value points to greater potency. Compound `CCN(CCc1ccc(NC(=O)c2cc(OC)c(OC)cc2NC(=O)c2cc(=O)c3ccccc3o2)cc1)Cc1ccc(OC)c(Cn2cncn2)c1` [Compound 24] showed an IC50 of 100 to 250 nM.
`COc1cc(NC(=O)c2cc(=O)c3ccccc3o2)c(C(=O)Nc2ccc(CCN(C)Cc3ccc(-n4ccnc4)c(OC)c3)cc2)cc1OC` [Compound 87] came in with an IC50 of 100 to 250 nM.
`COc1cc(NC(=O)c2cc(=O)c(O)co2)c(C(=O)Nc2ccc(CCN(C)Cc3cccc(-n4ccnc4)c3)cc2)cc1OC` [Compound 129] gave an IC50 of more than 1000 nM.
In the case of `CCN(CCc1ccc(NC(=O)c2cc(OC)c(OC)cc2NC(=O)c2cc(=O)c3ccccc3o2)cc1)Cc1ccc(OCCn2ccnc2)c(OC)c1` [Compound 134], the IC50 was 100 to 250 nM.
The compound `COc1cc(NC(=O)c2cc(=O)c3cc(C)cc(C)c3o2)c(C(=O)Nc2ccc(CCN(Cc3cccnc3)Cc3ccc4c(cnn4C)c3)cc2)cc1OC` [Compound 39] yielded an IC50 of 250 to 500 nM.
`COc1cc(NC(=O)c2cc(=O)c3ccccc3o2)c(C(=O)Nc2ccc(CCN(Cc3cccc(-n4ccnc4)c3)CC3CC3)cc2)cc1OC` [Compound 9] yielded a concentration for half-maximal inhibition (IC50) of 100 to 250 nM.
With `COc1cc(NC(=O)c2cc(=O)c3ccccc3o2)c(C(=O)Nc2ccc(CCN(C)Cc3ccc(-c4cscn4)cc3)cc2)cc1OC` [Compound 112], the IC50 was more than 1000 nM.
`COc1cc(NC(=O)c2cc(=O)c3ccccc3o2)c(C(=O)Nc2ccc(CCN(C)Cc3cccc(-c4cncs4)c3)cc2)cc1OC` [Compound 15] showed an IC50 of 500 to 1000 nM.
`CCn1ncc2cc(CN(CCc3ccc(NC(=O)c4cc(OC)c(OC)cc4NC(=O)c4cc(=O)c5ccccc5o4)cc3)Cc3cccnc3)ccc21` [Compound 248] yielded a concentration for half-maximal inhibition (IC50) of 250 to 500 nM.
The result for `COc1cc(NC(=O)c2cnc3ccccc3n2)c(C(=O)Nc2ccc(CCN(Cc3ccc4c(c3)n(C)c(=O)n4C)Cc3ccc4c(c3)n(C)c(=O)n4C)cc2)cc1OC` [Compound 169] reads more than 1000 nM.
In the case of `COc1cc2c(cc1OC)CN(CCc1ccc(NC(=O)c3ccc(C(=O)O)cc3NC(=O)c3cc(=O)c4ccccc4o3)cc1)CC2` [Compound 261] it was more than 1000 nM.
On to `COc1cc(NC(=O)c2cc(=O)c3ccccc3o2)c(C(=O)Nc2ccc(CCN(Cc3cccc(-n4ccnc4)c3)Cc3ccc(C)c4ncccc34)cc2)cc1OC` [Compound 206], for which the IC50 was more than 1000 nM.
The result for `CCN(CCc1ccc(NC(=O)c2cc(OC)c(OC)cc2NC(=O)c2cc(=O)c3ccccc3o2)cc1)Cc1cccc(-n2cnc(C)c2)c1` [Compound 107] reads 100 to 250 nM; that for `COc1cc(NC(=O)c2cc(=O)c3ccccc3o2)c(C(=O)Nc2ccc(CCN(C)Cc3cccc(-n4cnc(C)c4)c3)cc2)cc1OC` [Compound 11], 500 to 1000 nM; that for `COc1cncc(CN(CCc2ccc(NC(=O)c3cc(OC)c(OC)cc3NC(=O)c3cc(=O)c4ccccc4o3)cc2)Cc2cnc(-c3ccccc3F)nc2)c1` [Compound 230], 100 to 250 nM.
As to `COCCOc1cncc(CN(CCc2ccc(NC(=O)c3cc(OC)c(OC)cc3NC(=O)c3cc(=O)c4ccccc4o3)cc2)Cc2ccc3c(cnn3C)c2)c1` [Compound 56], the IC50 lay within 250 to 500 nM.
The result for `COc1cc(NC(=O)c2cc(=O)c3ccccc3o2)c(C(=O)Nc2ccc(CCN(Cc3ccc4c(cnn4C)c3)Cc3ccncc3F)cc2)cc1OC` [Compound 47] reads 250 to 500 nM; that for `COc1cc(NC(=O)c2cnc3ccccc3n2)c(C(=O)Nc2ccc(CCN(Cc3ccc4c(cnn4C)c3)Cc3ccc(C)c4ncccc34)cc2)cc1OC` [Compound 173], more than 1000 nM.
On to `COc1cncc(CN(CCc2ccc(NC(=O)c3cc(OC)c(OC)cc3NC(=O)c3cc(=O)c4ccccc4o3)cc2)Cc2ccc3c(cnn3C)c2)c1` [Compound 48], for which the IC50 was in the range of 100 to 250 nM.
In the case of `CCn1ncc2cc(CN(C)CCc3ccc(NC(=O)c4cc(OC)c(OC)cc4NC(=O)c4cc(=O)c5ccccc5o4)cc3)ccc21` [Compound 191] it was more than 1000 nM; in that of `CCN(CCc1ccc(NC(=O)c2cc(OC)c(OC)cc2NC(=O)c2cc(=O)c3ccccc3o2)cc1)Cc1ccc2c(c1)CCO2` [Compound 162], more than 1000 nM.
For `CCN(CCc1ccc(NC(=O)c2cc(OC)c(OC)cc2NC(=O)c2cc(=O)c3ccccc3o2)cc1)Cc1ccc(-n2cncn2)cc1` [Compound 20], the IC50 was in the range of 100 to 250 nM.
Consider `COc1cc(NC(=O)c2cc(=O)c3ccccc3o2)c(C(=O)Nc2ccc(CCN(C)Cc3cccc(-c4c[nH]cn4)c3)cc2)cc1OC` [Compound 13], for which the IC50 is more than 1000 nM.
`COc1cnccc1CN(CCc1ccc(NC(=O)c2cc(OC)c(OC)cc2NC(=O)c2cc(=O)c3ccccc3o2)cc1)Cc1ccc2c(cnn2C)c1` [Compound 49] returned an IC50 of 250 to 500 nM.
The result for `CCN(CCc1ccc(NC(=O)c2cc(OC)c(OC)cc2NC(=O)c2cc(=O)c3ccccc3o2)cc1)Cc1ccc(C)c2ncccc12` [Compound 144] reads more than 1000 nM.
In the case of `COc1cc(NC(=O)c2cc(=O)c3ccccc3o2)c(C(=O)Nc2ccc(CCN(Cc3ccc(-c4ccncc4)cc3)Cc3ccc4cnn(C)c4c3)cc2)cc1OC` [Compound 187] it was more than 1000 nM; in that of `CCN(CCc1ccc(NC(=O)c2cc(OC)c(OC)cc2NC(=O)c2cc(=O)c3ccccc3o2)cc1)Cc1ccc2c(cnn2C)c1` [Compound 106], more than 1000 nM.
In the case of `COc1cc(NC(=O)c2cc(=O)c3ccccc3o2)c(C(=O)Nc2ccc(CCN(C)C(=O)c3ccc(-n4ccnc4)cc3)cc2)cc1OC` [Compound 123] it was less than 100 nM.
Regarding `COc1cc(NC(=O)c2cc(=O)c3ccccc3o2)c(C(=O)Nc2ccc(CCN(Cc3ccc4c(c3)c(C)nn4C)Cc3ccc4c(c3)c(C)nn4C)cc2)cc1OC` [Compound 180], the IC50 is more than 1000 nM.
In the case of `COc1cc(NC(=O)c2cc(=O)c3ccccc3o2)c(C(=O)Nc2ccc(CCN(Cc3cncc(C)c3)Cc3ccc4c(cnn4C)c3)cc2)cc1OC` [Compound 57] it was 250 to 500 nM; in that of `COc1cc(NC(=O)C2CC(=O)c3cc(C)ccc3O2)c(C(=O)Nc2ccc(CCN(Cc3cccc(-n4ccnc4)c3)Cc3ccc4c(cnn4C)c3)cc2)cc1OC` (centres unmarked) [Compound 199], 500 to 1000 nM.
As to `Cn1ncc2cc(CN(CCc3ccc(NC(=O)c4ccc(C(=O)OCc5cncs5)cc4NC(=O)c4cc(=O)c5ccccc5o4)cc3)Cc3ccc4c(cnn4C)c3)ccc21` [Compound 266], the IC50 is more than 1000 nM.
For `COc1cc(NC(=O)c2cc(=O)c3ccccc3o2)c(C(=O)Nc2ccc(CCN(Cc3cccc(OC[C@@H]4CO[C@@](Cn5ccnc5)(c5ccc(Cl)cc5Cl)O4)c3)Cc3ccc4c(cnn4C)c3)cc2)cc1OC` [Compound 242], the IC50 fell in the range of 250 to 500 nM.
The result for `COc1cc(NC(=O)c2cc(=O)c3ccccc3o2)c(C(=O)Nc2ccc(CCN(C)Cc3cnc(-n4ccnc4)nc3)cc2)cc1OC` [Compound 126] reads 500 to 1000 nM; that for `CN(CCc1ccc(NC(=O)c2ccc(C(=O)OCc3cncs3)cc2NC(=O)c2cnc3ccccc3c2)cc1)Cc1ccc2c(cnn2C)c1` [Compound 283], 500 to 1000 nM; that for `COc1cc(NC(=O)c2cc(=O)c3ccccc3o2)c(C(=O)Nc2ccc(CCN(Cc3ccc(-n4ccnc4)cc3)Cc3ccc4c(cnn4C)c3)cc2)cc1OC` [Compound 26], 250 to 500 nM.
Take `COc1cc(NC(=O)c2cc(=O)c3cc(C)ccc3o2)c(C(=O)Nc2ccc(CCN(Cc3cccnc3)Cc3ccc4c(c3)c(C)nn4C)cc2)cc1OC` [Compound 66]: the IC50 was 100 to 250 nM.
The result for `COc1cc(NC(=O)c2cc(=O)c3cc(C)cc(C)c3o2)c(C(=O)Nc2ccc(CCN(Cc3cccc(-n4ccnc4)c3)Cc3ccc4c(cnn4C)c3)cc2)cc1OC` [Compound 197] reads more than 1000 nM.
In the case of `COc1cc(NC(=O)c2cc(=O)c(O)co2)c(C(=O)Nc2ccc(CCN(C)Cc3ccc(-n4ccnc4)cc3)cc2)cc1OC` [Compound 128], the IC50 lay within 500 to 1000 nM.
In the case of `COc1cncc(CN(CCc2ccc(NC(=O)c3cc(OC)c(OC)cc3NC(=O)c3cc(=O)c4ccc(C)cc4o3)cc2)Cc2ccc3c(cnn3C)c2)c1` [Compound 222] it was 100 to 250 nM; in that of `COc1cc(NC(=O)c2cc(=O)c3ccccc3o2)c(C(=O)Nc2ccc(CCN(Cc3cccc(-n4ccnc4)c3)Cc3cccc(-n4ccnc4C)c3)cc2)cc1OC` [Compound 245], 250 to 500 nM.
In the case of `COc1cc(NC(=O)c2cc(=O)c3ccccc3o2)c(C(=O)Nc2ccc(CCN(Cc3cccc(-n4ccnc4C)c3)Cc3ccc4c(cnn4C)c3)cc2)cc1OC` [Compound 249] it was more than 1000 nM.
In the case of `COc1cncc(CN(CCc2ccc(NC(=O)c3ccc(C(=O)NS(=O)(=O)N(C)C)cc3NC(=O)c3cc(=O)c4ccccc4o3)cc2)Cc2ccc3c(cnn3C)c2)c1` [Compound 278] it was 250 to 500 nM; in that of `COc1cc(NC(=O)c2cc(=O)c3ccccc3o2)c(C(=O)Nc2ccc(CCN(Cc3ccc(-c4ccncc4)cc3)Cc3ccc4c(cnn4C)c3)cc2)cc1OC` [Compound 188], more than 1000 nM.
In the case of `COc1cc(NC(=O)c2cnc3ccccc3n2)c(C(=O)Nc2ccc(CCN(Cc3cncc(C(C)C)c3)Cc3ccc4c(cnn4C)c3)cc2)cc1OC` [Compound 75], the IC50 was 250 to 500 nM.
In the case of `CCN(CCc1ccc(NC(=O)c2cc(OC)c(OC)cc2NC(=O)c2cc(=O)c3ccccc3o2)cc1)Cc1ccc2cn[nH]c2c1` [Compound 185] it was more than 1000 nM; in that of `COc1ccc(CN(CCc2ccc(NC(=O)c3cc(OC)c(OC)cc3NC(=O)c3cc(=O)c4ccccc4o3)cc2)Cc2cncn2C)cc1OC` [Compound 147], less than 100 nM; in that of `COCCOc1cncc(CN(CCc2ccc(NC(=O)c3cc(OC)c(OC)cc3NC(=O)c3cc(=O)c4cc(C)ccc4o3)cc2)Cc2ccc3c(cnn3C)c2)c1` [Compound 60], 250 to 500 nM.
In the case of `CCOc1cncc(CN(CCc2ccc(NC(=O)c3cc(OC)c(OC)cc3NC(=O)c3cc(=O)c4ccccc4o3)cc2)Cc2ccc3c(cnn3C)c2)c1` [Compound 55] it was 100 to 250 nM; in that of `COc1cc(NC(=O)c2cc(=O)c3ccccc3o2)c(C(=O)Nc2ccc(CCN(C)Cc3ccc(-c4ncco4)cc3)cc2)cc1OC` [Compound 114], more than 1000 nM.
